Measured values as given in the NIST ThermoML archive (doi:10.1021/je600573w).
± gives the expanded uncertainty stated by the source.

Assays:
[1] = 101.33 kPa, Liquid, Vibrating tube method
[2] = molar heat capacity at constant pressure; conditions: 101.33 kPa, Liquid, Small sample (50 mg) DSC

## Clc1cccc(Br)c1 [1-bromo-3-chlorobenzene]
[1]; 288.15 K
  mass density: 1638.44 ± 1.1 kg/m3
[1]; 298.15 K
  mass density: 1624.97 ± 1 kg/m3
[1]; 308.15 K
  mass density: 1611.51 ± 1 kg/m3
[1]; 318.15 K
  mass density: 1598.05 ± 1 kg/m3
[1]; 328.15 K
  mass density: 1584.56 ± 0.98 kg/m3
[1]; 338.15 K
  mass density: 1571.05 ± 0.97 kg/m3
[2]; 283.15 K
  molar heat capacity at constant pressure: 171.14 ± 2.6 J/K/mol
[2]; 285.15 K
  molar heat capacity at constant pressure: 171.49 ± 2.7 J/K/mol
[2]; 287.15 K
  molar heat capacity at constant pressure: 171.84 ± 2.7 J/K/mol
[2]; 289.15 K
  molar heat capacity at constant pressure: 172.21 ± 2.7 J/K/mol
[2]; 291.15 K
  molar heat capacity at constant pressure: 172.59 ± 2.7 J/K/mol
[2]; 293.15 K
  molar heat capacity at constant pressure: 172.97 ± 2.7 J/K/mol
[2]; 295.15 K
  molar heat capacity at constant pressure: 173.36 ± 2.7 J/K/mol
[2]; 297.15 K
  molar heat capacity at constant pressure: 173.75 ± 2.7 J/K/mol
[2]; 299.15 K
  molar heat capacity at constant pressure: 174.15 ± 2.7 J/K/mol
[2]; 301.15 K
  molar heat capacity at constant pressure: 174.56 ± 2.7 J/K/mol
[2]; 303.15 K
  molar heat capacity at constant pressure: 174.98 ± 2.7 J/K/mol
[2]; 305.15 K
  molar heat capacity at constant pressure: 175.4 ± 2.7 J/K/mol
[2]; 307.15 K
  molar heat capacity at constant pressure: 175.82 ± 2.7 J/K/mol
[2]; 309.15 K
  molar heat capacity at constant pressure: 176.25 ± 2.7 J/K/mol
[2]; 311.15 K
  molar heat capacity at constant pressure: 176.68 ± 2.7 J/K/mol
[2]; 313.15 K
  molar heat capacity at constant pressure: 177.12 ± 2.7 J/K/mol
[2]; 315.15 K
  molar heat capacity at constant pressure: 177.56 ± 2.8 J/K/mol
[2]; 317.15 K
  molar heat capacity at constant pressure: 178 ± 2.8 J/K/mol
[2]; 319.15 K
  molar heat capacity at constant pressure: 178.44 ± 2.8 J/K/mol
[2]; 321.15 K
  molar heat capacity at constant pressure: 178.89 ± 2.8 J/K/mol
[2]; 323.15 K
  molar heat capacity at constant pressure: 179.33 ± 2.8 J/K/mol
[2]; 325.15 K
  molar heat capacity at constant pressure: 179.78 ± 2.8 J/K/mol
[2]; 327.15 K
  molar heat capacity at constant pressure: 180.23 ± 2.8 J/K/mol
[2]; 329.15 K
  molar heat capacity at constant pressure: 180.68 ± 2.8 J/K/mol
[2]; 331.15 K
  molar heat capacity at constant pressure: 181.13 ± 2.8 J/K/mol
[2]; 333.15 K
  molar heat capacity at constant pressure: 181.58 ± 2.8 J/K/mol
[2]; 335.15 K
  molar heat capacity at constant pressure: 182.03 ± 2.8 J/K/mol
[2]; 337.15 K
  molar heat capacity at constant pressure: 182.47 ± 2.8 J/K/mol
[2]; 339.15 K
  molar heat capacity at constant pressure: 182.92 ± 2.8 J/K/mol
[2]; 341.15 K
  molar heat capacity at constant pressure: 183.36 ± 2.8 J/K/mol
[2]; 343.15 K
  molar heat capacity at constant pressure: 183.8 ± 2.9 J/K/mol
[2]; 345.15 K
  molar heat capacity at constant pressure: 184.24 ± 2.9 J/K/mol
[2]; 347.15 K
  molar heat capacity at constant pressure: 184.67 ± 2.9 J/K/mol
[2]; 349.15 K
  molar heat capacity at constant pressure: 185.1 ± 2.9 J/K/mol
[2]; 351.15 K
  molar heat capacity at constant pressure: 185.52 ± 2.9 J/K/mol
[2]; 353.15 K
  molar heat capacity at constant pressure: 185.94 ± 2.9 J/K/mol

## Clc1ccccc1Br [1-bromo-2-chlorobenzene]
[1]; 288.15 K
  mass density: 1659.67 ± 1.1 kg/m3
[1]; 298.15 K
  mass density: 1646.32 ± 1.1 kg/m3
[1]; 308.15 K
  mass density: 1633.01 ± 1.1 kg/m3
[1]; 318.15 K
  mass density: 1619.69 ± 1 kg/m3
[1]; 328.15 K
  mass density: 1606.36 ± 1 kg/m3
[1]; 338.15 K
  mass density: 1593.03 ± 1 kg/m3
[2]; 283.15 K
  molar heat capacity at constant pressure: 172.25 ± 2.7 J/K/mol
[2]; 285.15 K
  molar heat capacity at constant pressure: 172.59 ± 2.7 J/K/mol
[2]; 287.15 K
  molar heat capacity at constant pressure: 172.94 ± 2.7 J/K/mol
[2]; 289.15 K
  molar heat capacity at constant pressure: 173.29 ± 2.7 J/K/mol
[2]; 291.15 K
  molar heat capacity at constant pressure: 173.65 ± 2.7 J/K/mol
[2]; 293.15 K
  molar heat capacity at constant pressure: 174.02 ± 2.7 J/K/mol
[2]; 295.15 K
  molar heat capacity at constant pressure: 174.39 ± 2.7 J/K/mol
[2]; 297.15 K
  molar heat capacity at constant pressure: 174.78 ± 2.7 J/K/mol
[2]; 299.15 K
  molar heat capacity at constant pressure: 175.17 ± 2.7 J/K/mol
[2]; 301.15 K
  molar heat capacity at constant pressure: 175.56 ± 2.7 J/K/mol
[2]; 303.15 K
  molar heat capacity at constant pressure: 175.96 ± 2.7 J/K/mol
[2]; 305.15 K
  molar heat capacity at constant pressure: 176.36 ± 2.7 J/K/mol
[2]; 307.15 K
  molar heat capacity at constant pressure: 176.77 ± 2.7 J/K/mol
[2]; 309.15 K
  molar heat capacity at constant pressure: 177.19 ± 2.8 J/K/mol
[2]; 311.15 K
  molar heat capacity at constant pressure: 177.61 ± 2.8 J/K/mol
[2]; 313.15 K
  molar heat capacity at constant pressure: 178.03 ± 2.8 J/K/mol
[2]; 315.15 K
  molar heat capacity at constant pressure: 178.45 ± 2.8 J/K/mol
[2]; 317.15 K
  molar heat capacity at constant pressure: 178.88 ± 2.8 J/K/mol
[2]; 319.15 K
  molar heat capacity at constant pressure: 179.31 ± 2.8 J/K/mol
[2]; 321.15 K
  molar heat capacity at constant pressure: 179.74 ± 2.8 J/K/mol
[2]; 323.15 K
  molar heat capacity at constant pressure: 180.17 ± 2.8 J/K/mol
[2]; 325.15 K
  molar heat capacity at constant pressure: 180.6 ± 2.8 J/K/mol
[2]; 327.15 K
  molar heat capacity at constant pressure: 181.03 ± 2.8 J/K/mol
[2]; 329.15 K
  molar heat capacity at constant pressure: 181.47 ± 2.8 J/K/mol
[2]; 331.15 K
  molar heat capacity at constant pressure: 181.9 ± 2.8 J/K/mol
[2]; 333.15 K
  molar heat capacity at constant pressure: 182.33 ± 2.8 J/K/mol
[2]; 335.15 K
  molar heat capacity at constant pressure: 182.77 ± 2.8 J/K/mol
[2]; 337.15 K
  molar heat capacity at constant pressure: 183.2 ± 2.8 J/K/mol
[2]; 339.15 K
  molar heat capacity at constant pressure: 183.62 ± 2.8 J/K/mol
[2]; 341.15 K
  molar heat capacity at constant pressure: 184.05 ± 2.9 J/K/mol
[2]; 343.15 K
  molar heat capacity at constant pressure: 184.47 ± 2.9 J/K/mol
[2]; 345.15 K
  molar heat capacity at constant pressure: 184.89 ± 2.9 J/K/mol
[2]; 347.15 K
  molar heat capacity at constant pressure: 185.31 ± 2.9 J/K/mol
[2]; 349.15 K
  molar heat capacity at constant pressure: 185.72 ± 2.9 J/K/mol
[2]; 351.15 K
  molar heat capacity at constant pressure: 186.13 ± 2.9 J/K/mol
[2]; 353.15 K
  molar heat capacity at constant pressure: 186.53 ± 2.9 J/K/mol

## Clc1ccc(Cl)cc1 [1,4-dichlorobenzene]
[2]; 327.15 K
  molar heat capacity at constant pressure: 177.09 ± 2.7 J/K/mol
[2]; 329.15 K
  molar heat capacity at constant pressure: 177.53 ± 2.8 J/K/mol
[2]; 331.15 K
  molar heat capacity at constant pressure: 177.98 ± 2.8 J/K/mol
[2]; 333.15 K
  molar heat capacity at constant pressure: 178.43 ± 2.8 J/K/mol
[2]; 335.15 K
  molar heat capacity at constant pressure: 178.89 ± 2.8 J/K/mol
[2]; 337.15 K
  molar heat capacity at constant pressure: 179.35 ± 2.8 J/K/mol
[2]; 339.15 K
  molar heat capacity at constant pressure: 179.81 ± 2.8 J/K/mol
[2]; 341.15 K
  molar heat capacity at constant pressure: 180.28 ± 2.8 J/K/mol
[2]; 343.15 K
  molar heat capacity at constant pressure: 180.76 ± 2.8 J/K/mol
[2]; 345.15 K
  molar heat capacity at constant pressure: 181.24 ± 2.8 J/K/mol
[2]; 347.15 K
  molar heat capacity at constant pressure: 181.73 ± 2.8 J/K/mol
[2]; 349.15 K
  molar heat capacity at constant pressure: 182.22 ± 2.8 J/K/mol
[2]; 351.15 K
  molar heat capacity at constant pressure: 182.71 ± 2.8 J/K/mol
[2]; 353.15 K
  molar heat capacity at constant pressure: 183.21 ± 2.8 J/K/mol

## Clc1cccc(Cl)c1 [1,3-dichlorobenzene]
[1]; 288.15 K
  mass density: 1294.08 ± 0.62 kg/m3
[1]; 298.15 K
  mass density: 1282.79 ± 0.61 kg/m3
[1]; 308.15 K
  mass density: 1271.49 ± 0.59 kg/m3
[1]; 318.15 K
  mass density: 1260.17 ± 0.58 kg/m3
[1]; 328.15 K
  mass density: 1248.82 ± 0.57 kg/m3
[1]; 338.15 K
  mass density: 1237.42 ± 0.56 kg/m3
[2]; 283.15 K
  molar heat capacity at constant pressure: 167.15 ± 2.6 J/K/mol
[2]; 285.15 K
  molar heat capacity at constant pressure: 167.54 ± 2.6 J/K/mol
[2]; 287.15 K
  molar heat capacity at constant pressure: 167.93 ± 2.6 J/K/mol
[2]; 289.15 K
  molar heat capacity at constant pressure: 168.32 ± 2.6 J/K/mol
[2]; 291.15 K
  molar heat capacity at constant pressure: 168.72 ± 2.6 J/K/mol
[2]; 293.15 K
  molar heat capacity at constant pressure: 169.13 ± 2.6 J/K/mol
[2]; 295.15 K
  molar heat capacity at constant pressure: 169.55 ± 2.6 J/K/mol
[2]; 297.15 K
  molar heat capacity at constant pressure: 169.97 ± 2.6 J/K/mol
[2]; 299.15 K
  molar heat capacity at constant pressure: 170.39 ± 2.6 J/K/mol
[2]; 301.15 K
  molar heat capacity at constant pressure: 170.82 ± 2.6 J/K/mol
[2]; 303.15 K
  molar heat capacity at constant pressure: 171.25 ± 2.6 J/K/mol
[2]; 305.15 K
  molar heat capacity at constant pressure: 171.69 ± 2.7 J/K/mol
[2]; 307.15 K
  molar heat capacity at constant pressure: 172.14 ± 2.7 J/K/mol
[2]; 309.15 K
  molar heat capacity at constant pressure: 172.58 ± 2.7 J/K/mol
[2]; 311.15 K
  molar heat capacity at constant pressure: 173.04 ± 2.7 J/K/mol
[2]; 313.15 K
  molar heat capacity at constant pressure: 173.49 ± 2.7 J/K/mol
[2]; 315.15 K
  molar heat capacity at constant pressure: 173.95 ± 2.7 J/K/mol
[2]; 317.15 K
  molar heat capacity at constant pressure: 174.41 ± 2.7 J/K/mol
[2]; 319.15 K
  molar heat capacity at constant pressure: 174.88 ± 2.7 J/K/mol
[2]; 321.15 K
  molar heat capacity at constant pressure: 175.35 ± 2.7 J/K/mol
[2]; 323.15 K
  molar heat capacity at constant pressure: 175.83 ± 2.7 J/K/mol
[2]; 325.15 K
  molar heat capacity at constant pressure: 176.3 ± 2.7 J/K/mol
[2]; 327.15 K
  molar heat capacity at constant pressure: 176.78 ± 2.7 J/K/mol
[2]; 329.15 K
  molar heat capacity at constant pressure: 177.26 ± 2.8 J/K/mol
[2]; 331.15 K
  molar heat capacity at constant pressure: 177.75 ± 2.8 J/K/mol
[2]; 333.15 K
  molar heat capacity at constant pressure: 178.24 ± 2.8 J/K/mol
[2]; 335.15 K
  molar heat capacity at constant pressure: 178.73 ± 2.8 J/K/mol
[2]; 337.15 K
  molar heat capacity at constant pressure: 179.22 ± 2.8 J/K/mol
[2]; 339.15 K
  molar heat capacity at constant pressure: 179.71 ± 2.8 J/K/mol
[2]; 341.15 K
  molar heat capacity at constant pressure: 180.2 ± 2.8 J/K/mol
[2]; 343.15 K
  molar heat capacity at constant pressure: 180.7 ± 2.8 J/K/mol
[2]; 345.15 K
  molar heat capacity at constant pressure: 181.2 ± 2.8 J/K/mol
[2]; 347.15 K
  molar heat capacity at constant pressure: 181.7 ± 2.8 J/K/mol
[2]; 349.15 K
  molar heat capacity at constant pressure: 182.2 ± 2.8 J/K/mol
[2]; 351.15 K
  molar heat capacity at constant pressure: 182.7 ± 2.8 J/K/mol
[2]; 353.15 K
  molar heat capacity at constant pressure: 183.2 ± 2.8 J/K/mol
